Entries after “also recorded” stand apart in the source; their conditions may differ.
Columns and labels:
C57BL/6N mice = assay: Chronic social defeat stress model, sucrose preference test; assay type: in vivo, mouse; details: stressed mice; for sucrose preference deficit, treatments during stress protocol: dose not given at the place
Text: This task, designed to measure hedonic behaviors in mice is based on the palatable nature of sucrose observed in a number of mouse strains. On the first day of the test, sucrose-naive mice were placed in individual cages at 11 am and left there with water and food for habituation period. At 5 pm one water bottle was replaced with two bottles: one containing water and another 0.8% sucrose solution. Three hours later (8 pm) the bottles were weighed to measure liquid consumption and were replaced in cages until morning. The measures of an overnight consumption were then carried out for additional day to evaluate sucrose preference. Mice were not water deprived at any moment, in order to measure spontaneous sucrose preference and exclude any potential emotional confounds induced by stress of water deprivation. The sucrose preference was expressed as the percent of sucrose solution consumed with respect to total liquid consumption.
Social defeat stress procedure was a modified version of the protocol previously described (Berton, McClung et al. 2006). C57BL/6N mice were defeated chronically for 10 consecutive days. Every day they were exposed to the physical contact with an unfamiliar CD1 aggressor in its home cage for maximal interaction time of 5 minutes. After each session of physical stress, C57BL/6N and CD1 mice were separated by a perforated wall and maintained in sensory contact for 24 h. After the last session of stress, mice were transferred into new cages and housed separately throughout the behavioral tests period. C57BL/6N control mice, similarly to the experimental animals, were housed two per cage separated by a metal perforated wall. Every day, they were exposed to the physical contact for 5 minutes.
For behavioral analysis, 9CDHROL and 9CDHBC were dissolved in ethanol, and then mixed with sunflower oil, so that the final solution contained 3% ethanol. Vehicle treatments consisted of 3% ethanol solution in sunflower oil. For memory studies treatments with 9CDHRA were administered by intraperitoneal injections at volume/weight ratio 3 ml/kg at 7 am and 7 hours before the beginning of testing. For tests with animal model of chronic social defeat, different treatments were administered […] day of stress protocol immediately after the stress session starting from day 1 of the stress protocol.
This task, designed to measure hedonic behavior in mice (Moreau, 1997), is based on the palatable nature of sucrose observed in a number of mouse strains. On the first day of the test, sucrose-naive mice were placed in individual cages at 11 am and left there with water and food for habituation period. At 5 pm one water bottle was replaced with two bottles: one containing water and another 0.8% sucrose solution. Three hours later (8 pm) the bottles were weighed to measure liquid consumption and were replaced in cages until morning. The measures of an overnight consumption were then carried out for additional day to evaluate sucrose preference. Mice were not water deprived at any moment, in order to measure spontaneous sucrose preference and exclude any potential emotional confounds induced by stress of water deprivation. The sucrose preference was expressed as the percent of sucrose solution consumed with respect to total liquid consumption.
Social defeat stress procedure was a modified version of the protocol previously described (Berton et al. 2006). C57BL/6N mice were defeated chronically for 10 consecutive days. […]

[1] = tested on: Rbp1−/−, Rxrγ−/− and WT mice; assay: Delayed non-match to place (DNMTP) working memory task in the T-maze; assay type: in vivo, mouse
Experimental: Behaviorally naïve groups of mice were tested in the DNMTP (delayed non-match to place) procedure in the T-maze according to a protocol previously described (Wietrzych et al., 2005), with modifications to facilitate pharmacological tests (Wietrzych-Schindler et al., 2011). Spontaneous alternation was evaluated in the Ymaze apparatus according to protocol described in detail below.
Specifically, in the present protocol, animals were first trained for 10 consecutive days with minimal inter-trial intervals (ITI) of about 15 sec, which was necessary to attain the criterion of 90% or more of correct choices during […] consecutive days (days 9-10). After this period ITI was increased semi-randomly by blocks of 3-6 min during 5 consecutive days (days 11-15 indicated) to determine “test ITI” for each animal, which was defined as the shortest ITI at which mice perform at chance level. From day 16 mice were tested using corresponding “test ITI” delays following vehicle injection on the day 16 (to test for the effect of vehicle alone) and following 9CDHROL (40 mg/kg) injection on day 17. Three mice were excluded from testing since their latency to choose the arm during the retention phase exceeded 3 min in more than one trial/day on three consecutive days (exclusion criterion). On the day 18 mice were again injected (IP) with 9CDHROL (40 mg/kg) and 9 hours later sacrificed for chemical analyses. Mice which received vehicle injections on three consecutive days were used as vehicle-treated controls for analyses of 9CDHROL metabolism. An additional group of 3 naïve mice was also injected with 9CDHROL (40 mg/kg) to test for 9CDHROL metabolism following acute treatment.
In this variant, animals were first trained for 9 consecutive days of with minimal inter-trial intervals (ITI) of about 15 sec, which was necessary to attain the criterion of 90% or more of correct choices during three consecutive days (days 7-9). After this period ITI was increased semi-randomly to 180, 360, 720 and for some WT mice also 1080 seconds so that each animal was tested 6 times with each interval during four consecutive days (days 10-13 indicated). From day 13 mice were tested only twice per week beginning with training session on day one (with minimal, 15 sec ITIs) and testing pharmacological treatments on the second day. Only one pharmacological treatment was tested every 7 days. To test pro-mnemonic activities of UVI2108 and (R)-9CDHRA inventors used a minimal ITI, at which mice performed at chance level (50%) and which was 6 min for the Rbp1−/− or Rxrγ−/− groups and 12 min for most WT mice with exception of two mice tested at 18 min. Four mice (two wild types and one of each knockout line), were excluded from testing since their latency to choose the arm during the retention phase exceeded 3 min in more than one trial/day on three consecutive days (exclusion criterion).
For behavioral analysis, 9CDHROL and 9CDHBC were dissolved in ethanol, and then mixed with sunflower oil, so that the final solution contained 3% ethanol. Vehicle treatments consisted of 3% ethanol solution in sunflower oil. For memory studies treatments with 9CDHRA were administered by intraperitoneal injections at volume/weight ratio 3 ml/kg at 7 am and 7 hours before the beginning of testing. For tests with animal model of chronic social defeat, different treatments were administered by intraperitoneal injections at volume/weight ratio 3 ml/kg at 10 mg/kg for each substance between 5-6 pm every second day of stress protocol immediately after the stress session starting from day 1 of the stress protocol.
Vehicle treatments consisted of 3% ethanol and 3% DMSO solution in sunflower oil. Treatments were administered by intraperitoneal injections at volume/weight ratio 3 ml/kg between 8-10 am and 5-6 h before the test as previously validated (Wietrzych-Schindler M, 2011).

[2] = Rbp1−/− mice, ITI of 6 min, acute treatment, (R)-9CDHRA 1 or 2 mg/kg

CC(C=CC1=C(C)CCCC1(C)C)=CC=CC(C)CC(=O)O (stereo not drawn) [9CDHRA, 9-cis-13,14-dihydroretinoic acid]
sucrose preference (anhedonia) (C57BL/6N mice; 1 mg/kg): Anhedonia was abolished | sucrose preference deficit, treatments during stress protocol (C57BL/6N mice): prevented

CC1=C(/C=C/C(C)=C\C=C\C(C)CCO)C(C)(C)CCC1 (stereo not drawn) [9CDHROL, 9-cis-13,14-dihydroretinol]
working memory performance in DNMTP task ([1]; wild type C57BL6N male mice, 40 mg/kg, 7-9 h after treatment, mean ITI of 13 min, 40 mg/kg): improved working memory performance; also recorded: significantly enhanced memory performance | sucrose preference (anhedonia) (C57BL/6N mice; 10 mg/kg i.p. every second day of stress protocol, 10 mg/kg): prevented; also recorded: Anhedonia was abolished

CC1=C(/C=C/C(C)=C\C=C\[C@H](C)CC(=O)O)C(C)(C)CCC1 [(R)-9CDHRA, (9Z,13R)-13,14-Dihydroretinoic Acid]
working memory performance in DNMTP task [1, 2]: reversed working memory deficits; also recorded: improved memory performance | correct choices in DNMTP task ([1]; Rxrγ−/− mice, ITI 6 min): 57±7 % of correct choices | correct choices in DNMTP task ([1]; WT mice, 2 mg/kg, ITI of 12 or 18 min): about 70 % of correct choices | working memory performance in DNMTP task ([1]; WT mice, ITI of 12 or 18 min): showed pro-mnemonic activity; also recorded: raised performance

CC1(C)CCC(C)(C)c2cc(C3(c4ccc(C(=O)O)cc4)OCCO3)ccc21 [UVI2108, reference compound]
working memory performance in DNMTP task [1, 2]: reversed memory deficits | working memory performance in DNMTP task ([1]; Rxrγ−/− mice, ITI of 6 min): remained ineffective | sucrose preference deficit, treatments during stress protocol (C57BL/6N mice): prevented; also recorded: activities similar to 9CDHRA

— patent US12029715B2, “Precursor compounds for providing retinoids of the vitamin A5 pathway and uses thereof” (UNIVERSITY OF DEBRECEN, priority 2015, dated 2024)
